Measurements taken from patent US4205170A, “Propionic acid derivatives” (priority 1976, dated 1980).
Like-named read-outs stand apart in the source and are kept apart here.

Tested on: edema in the hind paws (carrageenan)
Test: carrageenan-induced hind paw edema, oral administration
Format: in vivo, male Wistar rats
Conditions: Rattus norvegicus; for inhibition in vivo at 1 mg/kg: 1 mg/kg orally; for inhibition in vivo at 5 mg/kg: 5 mg/kg orally
Protocol: That is, male Wistar rats weighing about 100 g, one group consisting of 5 to 7 animals, were given orally the compounds according to the present invention and then edema was induced in the hind paws by subcutaneous injections of 0.1 ml of 1% carrageenan 1 hour after the administration of the test compounds, and the volumes of the hind paws were measured by a volume differential meter.

[1] = 1 hr, read-out: Inhibition (%) 1 hr
[2] = 2 hr, read-out: Inhibition (%) 2 hr
[3] = 3 hr, read-out: Inhibition (%) 3 hr
[4] = 4 hr, read-out: Inhibition (%) 4 hr
[5] = 5 hr, read-out: Inhibition (%) 5 hr
[6] = 6 hr, read-out: Inhibition (%) 6 hr
[7] = 10 mg/kg orally, 1 hr, read-out: Inhibition (%) 1 hr
[8] = 10 mg/kg orally, 2 hr, read-out: Inhibition (%) 2 hr
[9] = 10 mg/kg orally, 3 hr, read-out: Inhibition (%) 3 hr
[10] = 10 mg/kg orally, 4 hr, read-out: Inhibition (%) 4 hr
[11] = 10 mg/kg orally, 5 hr, read-out: Inhibition (%) 5 hr
[12] = 10 mg/kg orally, 6 hr, read-out: Inhibition (%) 6 hr

SMILES: COc1ccc2c(c1)c(CC(=O)O)c(C)n2C(=O)c1ccc(Cl)cc1 [Indomethacin, reference compound]
- inhibition in vivo at 1 mg/kg [1]: 21.6%
- inhibition in vivo at 1 mg/kg [2]: 39.6%
- inhibition in vivo at 1 mg/kg [3]: 29.9%
- inhibition in vivo at 1 mg/kg [4]: 36.4%
- inhibition in vivo at 1 mg/kg [5]: 28.9%
- inhibition in vivo at 1 mg/kg [6]: 28.7%
- inhibition in vivo at 5 mg/kg [1]: 38.3%
- inhibition in vivo at 5 mg/kg [2]: 51.7%
- inhibition in vivo at 5 mg/kg [3]: 59.2%
- inhibition in vivo at 5 mg/kg [4]: 58.4%
- inhibition in vivo at 5 mg/kg [5]: 48.7%
- inhibition in vivo at 5 mg/kg [6]: 41%
- inhibition in vivo at 10 mg/kg [7]: 64.4%
- inhibition in vivo at 10 mg/kg [8]: 59.8%
- inhibition in vivo at 10 mg/kg [9]: 52.1%
- inhibition in vivo at 10 mg/kg [10]: 63.8%
- inhibition in vivo at 10 mg/kg [11]: 54.4%
- inhibition in vivo at 10 mg/kg [12]: 50.3%

SMILES: CC(C(=O)O)c1ccc2c(c1)C(=O)Cc1ccccc1O2 (centres unmarked) [Compound 12, 2-(10,11-dihydro-11-oxodibenzo[b,f]oxepin-2-yl)-propionic acid]
- inhibition in vivo at 10 mg/kg (1 h, read-out: Inhibition (%) 1 hr): 34.2%
- inhibition in vivo at 10 mg/kg (2 h, read-out: Inhibition (%) 2 hr): 58.3%
- inhibition in vivo at 10 mg/kg (3 h, read-out: Inhibition (%) 3 hr): 79.4%
- inhibition in vivo at 10 mg/kg (4 h, read-out: Inhibition (%) 4 hr): 83.1%
- inhibition in vivo at 10 mg/kg (5 h, read-out: Inhibition (%) 5 hr): 71.1%
- inhibition in vivo at 10 mg/kg (6 h, read-out: Inhibition (%) 6 hr): 51.4%

SMILES: CCCCC1C(=O)N(c2ccccc2)N(c2ccccc2)C1=O [Phenyl butazone, reference compound]
- inhibition in vivo at 5 mg/kg [2]: 22.7%
- inhibition in vivo at 5 mg/kg [3]: 21.1%
- inhibition in vivo at 5 mg/kg [4]: 22.2%
- inhibition in vivo at 5 mg/kg [5]: 13.1%
- inhibition in vivo at 5 mg/kg [6]: 13.6%
- inhibition in vivo at 10 mg/kg [7]: 12.4%
- inhibition in vivo at 10 mg/kg [8]: 23.7%
- inhibition in vivo at 10 mg/kg [9]: 27.4%
- inhibition in vivo at 10 mg/kg [10]: 20%
- inhibition in vivo at 10 mg/kg [11]: 14.4%
- inhibition in vivo at 10 mg/kg [12]: 8.6%

SMILES: CC(C(N)=O)c1ccc2c(c1)C(=O)Cc1ccccc1O2 (centres unmarked) [Compound 10, 2-(10,11-dihydro-11-oxodibenzo[b,f]oxepin-2-yl)-propionamide]
- inhibition in vivo at 10 mg/kg [7]: 71.2%
- inhibition in vivo at 10 mg/kg [8]: 69.3%
- inhibition in vivo at 10 mg/kg [9]: 76.3%
- inhibition in vivo at 10 mg/kg [10]: 76.7%
- inhibition in vivo at 10 mg/kg [11]: 56.4%
- inhibition in vivo at 10 mg/kg [12]: 34.4%

SMILES: CCOC(=O)C(C)c1ccc2c(c1)C(=O)Cc1ccccc1S2 (centres unmarked) [Compound 3, Ethyl 2-(10,11-dihydro-11-oxodibenzo[b,f]thiepin-2-yl)-propionate]
- inhibition in vivo at 10 mg/kg [7]: 62.3%
- inhibition in vivo at 10 mg/kg [8]: 72%
- inhibition in vivo at 10 mg/kg [9]: 79.9%
- inhibition in vivo at 10 mg/kg [10]: 78.2%
- inhibition in vivo at 10 mg/kg [11]: 74.5%
- inhibition in vivo at 10 mg/kg [12]: 64.5%

SMILES: CC(C(=O)O)c1cccc2c1Oc1ccccc1CC2 (centres unmarked) [Compound 19, 2-(10,11-dihydrodibenzo[b,f]oxepin-4-yl)-propionic acid]
- inhibition in vivo at 10 mg/kg [7]: 45.1%
- inhibition in vivo at 10 mg/kg [8]: 51.3%
- inhibition in vivo at 10 mg/kg [9]: 28.2%
- inhibition in vivo at 10 mg/kg [10]: 25.1%
- inhibition in vivo at 10 mg/kg [11]: 18.7%
- inhibition in vivo at 10 mg/kg [12]: 10.2%

SMILES: CC(C(=O)O)c1ccc2c(c1)Sc1ccccc1CC2=O (centres unmarked) [Compound 6, 2-(10,11-dihydro-11-oxodibenzo[b,f]thiepin-3-yl)-propionic acid]
- inhibition in vivo at 10 mg/kg [7]: 65.9%
- inhibition in vivo at 10 mg/kg [8]: 41.5%
- inhibition in vivo at 10 mg/kg [9]: 31.8%
- inhibition in vivo at 10 mg/kg [10]: 26.1%
- inhibition in vivo at 10 mg/kg [11]: 22.3%
- inhibition in vivo at 10 mg/kg [12]: 20.5%

SMILES: CCOC(=O)C(C)c1ccc2c(c1)Sc1ccccc1CC2 (centres unmarked) [Compound 8, Ethyl 2-(10,11-dihydrodibenzo[b,f]thiepin-3-yl)-propionate]
- inhibition in vivo at 10 mg/kg [7]: 43.2%
- inhibition in vivo at 10 mg/kg [8]: 37.8%
- inhibition in vivo at 10 mg/kg [9]: 26.9%
- inhibition in vivo at 10 mg/kg [10]: 20.1%
- inhibition in vivo at 10 mg/kg [11]: 15.8%
- inhibition in vivo at 10 mg/kg [12]: 15.1%

SMILES: CC(C(=O)O)c1ccc2c(c1)C(=O)Cc1cccnc1S2 (centres unmarked) [Compound 20, 2-(5,6-dihydro-6-oxobenzo[b]pyrido[3,2-f]thiepin-8-yl)-propionic acid]
- inhibition in vivo at 10 mg/kg [7]: 45%
- inhibition in vivo at 10 mg/kg [8]: 54.3%
- inhibition in vivo at 10 mg/kg [9]: 47.5%
- inhibition in vivo at 10 mg/kg [10]: 33.8%
- inhibition in vivo at 10 mg/kg [11]: 28.9%
- inhibition in vivo at 10 mg/kg [12]: 24.3%

SMILES: CC(C(N)=O)c1ccc2c(c1)CCc1ccccc1S2 (centres unmarked) [Compound 30, 2-(10,11-dihydrodibenzo[b,f]thiepin-2-yl)-propionamide]
- inhibition in vivo at 5 mg/kg [1]: 21.4%
- inhibition in vivo at 5 mg/kg [2]: 56.4%
- inhibition in vivo at 5 mg/kg [3]: 59%
- inhibition in vivo at 5 mg/kg [4]: 52.8%
- inhibition in vivo at 5 mg/kg [5]: 38.6%
- inhibition in vivo at 5 mg/kg [6]: 27.3%

SMILES: CC(C(N)=O)c1ccc2c(c1)C(=O)Cc1ccccc1S2 (centres unmarked) [Compound 1, 2-(10,11-dihydro-11-oxodibenzo[b,f]thiepin-2-yl)-propionamide]
- inhibition in vivo at 10 mg/kg [7]: 47.1%
- inhibition in vivo at 10 mg/kg [8]: 66.7%
- inhibition in vivo at 10 mg/kg [9]: 70.5%
- inhibition in vivo at 10 mg/kg [10]: 73.6%
- inhibition in vivo at 10 mg/kg [11]: 68%
- inhibition in vivo at 10 mg/kg [12]: 66%

SMILES: CC(C(N)=O)c1ccc2c(c1)CCc1ccccc1O2 (centres unmarked) [Compound 15, 2-(10,11-dihydrodibenzo[b,f]oxepin-2-yl)-propionamide]
- inhibition in vivo at 10 mg/kg [7]: 36.1%
- inhibition in vivo at 10 mg/kg [8]: 44.1%
- inhibition in vivo at 10 mg/kg [9]: 53.3%
- inhibition in vivo at 10 mg/kg [10]: 48.7%
- inhibition in vivo at 10 mg/kg [11]: 33%
- inhibition in vivo at 10 mg/kg [12]: 27.2%
